This is an account of results in ChEMBL document CHEMBL1201862, “PubChem BioAssay data set” (2004).

Test systems include OVCAR-4; HL-60; SK-MEL-5; SK-MEL-28; T47D; SNB-75; IGROV-1; A549; MDA-MB-435; CCRF-CEM; MCF7; SN12C; HCT-116; HT-29; OVCAR-5; DU-145; MDA-MB-231; Hs-578T; NCI-H522; U-251.
Common to all, as to experiment: growth of human tumour cells (NCI), 48 h

Structures can show the parent of a compound that is named as a salt.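 Exposure lasted 48 hours, with cells grown in 96-well plates and compounds tested at five concentrations. Here, GI50 denotes the concentration required for 50% inhibition of growth.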 Activity calls are given as the source filed them. Rule as the data show it: active = GI50 up to about 1.1 µM and inactive = higher. Where only a bound is given, the exact number is not on record here.

With `CNC(=O)OCc1nc(SSC(C)(C)C)n(C)c1COC(=O)NC`, the GI50 in the assay with OVCAR-4 was 2.01 µM (inactive); with HL-60, 0.863 µM (active); with SK-MEL-5, 5.98 µM (inactive); in the assay with SK-MEL-28 it was 1.84 µM (inactive); in the assay on T47D, 2.81 µM (inactive); in the assay with SNB-75, 8.57 µM (inactive). Also, the GI50 is 8.13 µM (inactive) in the assay with IGROV-1; 14.2 µM (inactive) in the assay on A549; 4.83 µM (inactive) in the assay with MDA-MB-435; 0.697 µM (active) in the assay with CCRF-CEM; 4.3 µM (inactive) in the assay with MCF7; 4.42 µM (inactive) with SN12C. The GI50 was 1.72 µM (inactive) in the assay with HCT-116; 5.56 µM (inactive) in the assay with HT-29; 10.4 µM (inactive) with OVCAR-5; 19.1 µM (inactive) with DU-145; 2.24 µM (inactive) in the assay on MDA-MB-231; 2.22 µM (inactive) in the assay with Hs-578T. For the same compound, the GI50 in the assay with NCI-H522 was 1.16 µM (inactive); in the assay on U-251, 12.9 µM (inactive).
As for `Cc1ccc(S(=O)(=O)N/N=C2/CC3CCC4CC2CC34)cc1` (centres undefined), the GI50 in the assay with HL-60 is > 100 µM (inactive); in the assay with SK-MEL-5, 84.7 µM (inactive); with SK-MEL-28, > 100 µM (inactive); in the assay on T47D, 81.1 µM (inactive); in the assay with SNB-75, > 100 µM (inactive); with IGROV-1, > 100 µM (inactive). The GI50 in the assay with A549, in the assay with MDA-MB-435, in the assay with CCRF-CEM, with MCF7, in the assay with SN12C and in the assay on HCT-116 was > 100 µM (inactive) in each case. The GI50 in the assay with HT-29 is > 100 µM (inactive); in the assay on OVCAR-5, > 100 µM (inactive); with DU-145 it was > 100 µM (inactive); in the assay on MDA-MB-231, > 100 µM (inactive); in the assay on Hs-578T, 88.3 µM (inactive); in the assay on NCI-H522 it was > 100 µM (inactive). Moreover, the GI50 in the assay on U-251 was > 100 µM (inactive).
Take `c1ccc(-c2sc(-c3cccs3)cc2Cc2cccs2)cc1`: the GI50 in the assay on OVCAR-4, with HL-60, in the assay with SK-MEL-5, in the assay on SK-MEL-28, with T47D and in the assay on SNB-75 was > 10 µM (inactive) each time. Moreover, the GI50 with IGROV-1, in the assay with A549, in the assay with MDA-MB-435, in the assay on CCRF-CEM, in the assay with MCF7 and in the assay on SN12C was > 10 µM (inactive) in each case. Moreover, the GI50 in the assay on HCT-116, with HT-29, in the assay on DU-145, with MDA-MB-231, in the assay on Hs-578T and in the assay with NCI-H522 was > 10 µM (inactive) in each case.
On to `CN(C)c1ccc([S+]([O-])Nc2ccccc2)cc1` (centres undefined), for which the GI50 is 45 µM (inactive) in the assay with OVCAR-4; 28.1 µM (inactive) in the assay on HL-60; 11.9 µM (inactive) with SK-MEL-5; > 100 µM (inactive) in the assay with SK-MEL-28; 19.1 µM (inactive) in the assay with T47D; 30 µM (inactive) in the assay on IGROV-1. In addition, the GI50 was 39 µM (inactive) with A549; 21.1 µM (inactive) with MDA-MB-435; > 100 µM (inactive) with CCRF-CEM; 29.4 µM (inactive) in the assay on MCF7; > 100 µM (inactive) in the assay with SN12C; 26.6 µM (inactive) with HCT-116. For the same compound, the GI50 is 76.4 µM (inactive) in the assay on HT-29; > 100 µM (inactive) in the assay on OVCAR-5; > 100 µM (inactive) in the assay on DU-145; 33.3 µM (inactive) in the assay on MDA-MB-231; 45 µM (inactive) in the assay on Hs-578T; 13.2 µM (inactive) with NCI-H522. Further, the GI50 with U-251 was 19.3 µM (inactive).
As to `O=C1C(Cl)C(c2cc3cc(Br)ccc3nc2Cl)N1c1ccc(Cl)cc1` (centres undefined), the GI50 with OVCAR-4 is 4.46 µM (inactive); in the assay with HL-60 it was 6.95 µM (inactive); in the assay on SK-MEL-5, 3.21 µM (inactive); in the assay with SK-MEL-28, 11.1 µM (inactive); in the assay with T47D, 6.65 µM (inactive); in the assay with SNB-75, 7.83 µM (inactive). Moreover, the GI50 in the assay with IGROV-1 was 3.02 µM (inactive); with A549 it was 10.4 µM (inactive); with MDA-MB-435 it was 5.82 µM (inactive); in the assay on CCRF-CEM, 3.08 µM (inactive); with MCF7, 3.74 µM (inactive); with SN12C, 4.45 µM (inactive). The GI50 with HCT-116 was 5.31 µM (inactive); in the assay on HT-29 it was 7.16 µM (inactive); in the assay with OVCAR-5, 10.7 µM (inactive); with DU-145 it was 6.95 µM (inactive); in the assay with MDA-MB-231 it was 3.9 µM (inactive); with Hs-578T, 9.2 µM (inactive). The GI50 in the assay on NCI-H522 is 3.95 µM (inactive).
On to `Cc1cc2nc(N3C(=O)/C(=C/c4ccc(N(C)C)cc4)N=C3c3ccccc3)sc2cc1C`, for which the GI50 in the assay with OVCAR-4 is 29.4 µM (inactive); with HL-60, 16.9 µM (inactive); in the assay on SK-MEL-5, 15.2 µM (inactive); in the assay on SK-MEL-28 it was 51.9 µM (inactive); in the assay with T47D it was 31.4 µM (inactive); in the assay with SNB-75, 22.9 µM (inactive). In addition, the GI50 with IGROV-1 was 16.3 µM (inactive); in the assay with A549 it was 33.2 µM (inactive); with MDA-MB-435, 7.46 µM (inactive); with CCRF-CEM, 11.3 µM (inactive); with MCF7, 0.515 µM (active); in the assay with SN12C, 18.7 µM (inactive). The GI50 with HCT-116 is 17 µM (inactive); in the assay with HT-29, 18.5 µM (inactive); in the assay on OVCAR-5 it was 22.9 µM (inactive); with DU-145, 50.4 µM (inactive); in the assay with MDA-MB-231, 26 µM (inactive); with Hs-578T it was 30.3 µM (inactive). Further, in the assay with U-251, the GI50 was 32.7 µM (inactive).
Regarding `CCCCCC(CO)C(O)(C(F)(F)F)C(F)(F)F` (centres undefined), the GI50 in the assay with OVCAR-4, in the assay with HL-60, in the assay on SK-MEL-5, with SK-MEL-28, in the assay with T47D and in the assay with SNB-75 was > 10 µM (inactive) in each case. Further, the GI50 with IGROV-1, with A549, in the assay on MDA-MB-435, in the assay with MCF7, in the assay on SN12C and in the assay on HCT-116 was > 10 µM (inactive) in each case. The GI50 with HT-29, with OVCAR-5, in the assay with DU-145, in the assay on MDA-MB-231, with Hs-578T and in the assay with NCI-H522 was > 10 µM (inactive) throughout. The GI50 in the assay on U-251 is > 10 µM (inactive).
Consider `CN(C)CCOC(c1ccccc1)c1ccccc1` [DIPHENHYDRAMINE HYDROCHLORIDE], for which the GI50 with OVCAR-4, in the assay on HL-60, in the assay on SK-MEL-5, in the assay on SK-MEL-28, in the assay with T47D and with IGROV-1 was > 100 µM (inactive) in each case. The GI50 in the assay with A549, with MDA-MB-435, in the assay with CCRF-CEM, in the assay with MCF7, in the assay with SN12C and in the assay with HCT-116 was > 100 µM (inactive) in each case. Moreover, the GI50 is > 100 µM (inactive) in the assay with HT-29; > 100 µM (inactive) in the assay on OVCAR-5; > 100 µM (inactive) in the assay on DU-145; > 100 µM (inactive) in the assay on MDA-MB-231; 66.7 µM (inactive) in the assay with Hs-578T; > 100 µM (inactive) with NCI-H522.
For the compound `O=Cc1cc(C(=O)OCc2ccccc2)n(S(=O)(=O)c2ccccc2)c1`, the GI50 in the assay with OVCAR-4 is 43.5 µM (inactive); in the assay with HL-60, 5.75 µM (inactive); in the assay with SK-MEL-5, 4.84 µM (inactive); with SK-MEL-28, 12.8 µM (inactive); in the assay on T47D it was 30.5 µM (inactive); with SNB-75, 23.1 µM (inactive). Moreover, the GI50 in the assay on IGROV-1 was 25.9 µM (inactive); in the assay on A549, 25.8 µM (inactive); with MDA-MB-435, 2.29 µM (inactive); in the assay on CCRF-CEM, 8.07 µM (inactive); with MCF7 it was 11.7 µM (inactive); with SN12C it was 26.3 µM (inactive). The GI50 was 7.5 µM (inactive) in the assay on HCT-116; 21.7 µM (inactive) in the assay with HT-29; 18.6 µM (inactive) with OVCAR-5; 37 µM (inactive) in the assay on DU-145; 37.7 µM (inactive) with MDA-MB-231; 15.8 µM (inactive) with Hs-578T. Moreover, in the assay on NCI-H522, the GI50 was 40.4 µM (inactive).
Turning to `CC(=O)NC(Cc1c[nH]c2ccccc12)C(=O)O` (centres undefined), the GI50 with OVCAR-4, with HL-60, in the assay with SK-MEL-5, with SK-MEL-28, with T47D and in the assay on IGROV-1 was > 100 µM (inactive) each time. In addition, the GI50 with A549, in the assay on MDA-MB-435, in the assay with CCRF-CEM, in the assay on MCF7, in the assay on SN12C and in the assay on HCT-116 was > 100 µM (inactive) each time. Besides, the GI50 with HT-29, in the assay with OVCAR-5, in the assay on DU-145, with MDA-MB-231, in the assay on Hs-578T and with NCI-H522 was > 100 µM (inactive) throughout. The GI50 with U-251 is > 100 µM (inactive).
